Test results taken from patent US11136367B2, “Multi-level specific targeting of cancer cells” (Wake Forest University Health Sciences, priority 2010, dated 2021).

Columns and labels:
[1] = test system: IL-13Rα2 positive U-251 MG cells; assay: Localization of biotin-conjugated proteins, tyramide signal amplification, confocal microscopy; format: cell-based, Human
Method: Biotin-XX microscale protein labeling kit (Invitrogen, Carlsbad, Calif.) was used to label the proteins as per the manufacturer's instructions. A different molar ratio of 12, 8 or 4 biotin-dye to the proteins was used. The biotin-labeled proteins were run on a gel and a western blot carried out using streptavidin-HR.P (Pierce, Rockford, Ill.) to detect for biotin-labeled proteins. The number of Biotin molecules attached to the proteins was determined by the Biofluoreporter assay kit (Invitrogen) as per the manufacturer's guidelines.
12,500 U-251 MG GBM cells were plated on coverslips per well in a 24-well plate. […] After the incubations, the cells were fixed with 4% paraformaldehyde (Ted Pella, Redding, Calif.) for 15 mins at 37° C. and washed with PBS 4× times. The cells were then permeabilized with 0.1% Triton-X-100/0.2% BSA-PBS for 10 min at RT. After permeabilization, the cells were washed 3 times with 1×PBS. After washings, Tyramide signal amplification kit (Invitrogen, Carlsbad, Calif.) using Alexa fluor 488 dyes and HR.P-streptavidin was carried out as per manufacturer's instructions. Topro-3 iodide (Invitrogen, Carlsbad, Calif.) was added at a concentration of 1:1000 dilution of the 1 mM stock to stain the cell nuclei. […]

[2] = target: T1, IL-13Rα2 receptor on GBM cells (U-251 MG) (Homo sapiens, UniProt Q14627); assay: Colorimetric MTS/PMS cell viability assay: neutralization of IL-13.E13K-PE38QQR cytotoxicity (competition for receptor); format: cell-based
T1 construct: endogenous in cells; host or cells: U-251 MG human glioblastoma cells (ATCC)
T1 sequence (Q14627 27-380): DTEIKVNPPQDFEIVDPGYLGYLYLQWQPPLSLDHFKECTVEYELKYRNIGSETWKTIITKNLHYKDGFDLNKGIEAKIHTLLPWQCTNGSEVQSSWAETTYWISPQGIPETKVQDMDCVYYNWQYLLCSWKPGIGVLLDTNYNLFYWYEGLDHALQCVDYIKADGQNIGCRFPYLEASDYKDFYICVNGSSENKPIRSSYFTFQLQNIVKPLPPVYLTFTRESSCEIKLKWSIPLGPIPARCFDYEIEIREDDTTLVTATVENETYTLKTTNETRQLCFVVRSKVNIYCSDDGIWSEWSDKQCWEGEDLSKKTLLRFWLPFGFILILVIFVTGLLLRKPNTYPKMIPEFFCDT
Method: 1× 10^3 U-251 MG cells were plated per well in quadruplicates for each concentration to be tested. IL-13.E13K-PE38QQR is an IL-13Rα2 based cytotoxin against GBM (24). After 24 hours incubation at […] for the cells to attach, a fixed concentration (i.e. 1 μM) of the IL13.E13K-D2-NLS and other purified proteins were added and incubated at 37° C. for 1 hr. After 1 hr. incubation, increasing concentrations of the IL-13.E13K-PE38QQR ranging from 0.1 to 100 ng/ml was added and the plate was incubated for 48 hr. Cells treated with cyclohexamide and just the cytotoxins were used as controls. After 48 hr., cell viability was measured using the MTS [3-(4,5-dimethylthiazol-2-yl)-543-carboxymethoxyphenyl)-2-(4-sulfophenyl)-2H-tetrazolium]/PMS [phenazine methosulfate] dye (Promega, Madison, Wis.) as per the manufacturer's instructions. The absorbance from the assay was measured at 490 nm using the plate reader Spectra max 340 PC (Molecular Devices, Sunnyvale, Calif.) and data was plotted as percentage of control versus concentration of the toxin used.
To this end, we carried out a cell-viability assay in which these recombinant proteins bound to the IL-13Rα2 receptor and protected against cytotoxic action of IL-13.E13K-PE38QQR. […]

[3] = test system: LN229 cells, very low expressors of IL-13Rα2; assay: Localization of biotin-labeled proteins in LN229 cells; format: cell-based, Human; settings: 24 hr.
Method: (§1) 12,500 U-251 MG GBM cells were plated on coverslips per well in a 24-well plate. After 24 hr., 1 μM/well of biotin-labeled proteins was added onto the U-251 MG cells for 15 min, 4, 8 and 24 hr. After the incubations, the cells were fixed with 4% paraformaldehyde (Ted Pella, Redding, Calif.) for 15 mins at 37° C. and washed with PBS 4× times. The cells were then permeabilized with 0.1% Triton-X-100/0.2% BSA-PBS for 10 min at RT. After permeabilization, the cells were washed 3 times with 1×PBS. After washings, Tyramide signal amplification kit (Invitrogen, Carlsbad, Calif.) using Alexa fluor 488 dyes and HR.P-streptavidin was carried out as per manufacturer's instructions. Topro-3 iodide (Invitrogen, Carlsbad, Calif.) was added at a concentration of 1:1000 dilution of the 1 mM stock to stain the cell nuclei. After the tyramide staining, wells were washed and mounted with gel mount (Biomeda, Foster City, Calif.) and observed with LSM 510 Zeiss Confocal Microscope (Cellular Imaging Core, Comprehensive Cancer Center, Wake Forest University) and the images processed using Zeiss LSM Image Browser (version 4.2).
We carried out identical experiments with biotin-labeled IL-13.E13K-D2-NLS in LN229 cells, very low expressors of IL-13Rα2.

[4] = test system: G48a GBM cells, which over-express IL-13Rα2; assay: Localization of biotin-conjugated proteins in G48a GBM cells; format: cell-based
Method: as §1, with “After 24 hr., 1 μM/well of biotin-labeled proteins was added onto the U-251 MG cells for 15 min, 4, 8 and 24 hr.” left out
We repeated the above experiments in another GBM cell line, G48a (13), which over-expresses IL-13Rα2. We obtained similar results as with the U-251 MG cells.

For IL-13.E13K, the subcellular localization ([1]; biotin label, 8, 4 hr and 5 min, data not shown) was “demonstrate the results observed at 24 hr”, the subcellular localization ([1]; biotin label, 24 hr.) was “accumulated mainly in the peri-nuclear region” and the “protection against cytotoxic action of IL-13.E13K-PE38QQR (competition for IL-13Rα2)” value ([2]; U-251 MG cells, 1 μM protein 1 hr before 0.1 to 100 ng/ml cytotoxin, 48 hr) was “blocked the action of the cytotoxin”. For the same substance, the “binding of biotin-conjugated proteins to IL-13Rα2 on GBM cells” value ([2]; biotin-conjugated proteins) was “bind to the IL-13Rα2”, the “cytosolic or perinuclear localization” value [3] was “no cytosolic or perinuclear localization” and the nuclear localization ([4]; any of the time-points) was “not found to have any nuclear localization”. For the same substance, the subcellular localization ([4]; biotin label, 4, 8 and 24 hr.) was “cytosolic/perinuclear localization” and the subcellular localization ([4]; biotin label, 5 min) was “cell membrane binding”.
